In patent US20100196365A1, “USE OF IMIDAZOQUINOLINES FOR THE TREATMENT OF EGFR DEPENDENT DISEASES OR DISEASES THAT HAVE ACQUIRED RESISTANCE TO AGENTS THAT TARGET EGFR FAMILY MEMBERS” (priority 2007, published 2010):

Assays:
[1] = test system: NCI-H358 cell line; experiment: proliferation assay (methylene blue assay) with NCI-H358 tumor cells; assay type: cell-based; conditions: Homo sapiens, read-out: Growth Inhibitory 50 (GI50)
[2] = test system: NCI-H1975 cell line; experiment: proliferation assay in EGFR inhibitor resistant NCI-H1975 cell line; assay type: cell-based; conditions: Homo sapiens; NCI-H1975 cell line (HER1 T790M)
[3] = test system: panel of breast tumor cell lines; experiment: antiproliferative activity in a panel of breast cancer cell lines (Methylene blue viable cell detection assay); assay type: cell-based, human
Method: The indicated cell lines are incubated with increasing amount of Compound A, and effect on the proliferation assessed with a Methylene blue viable cell detection assay. The cell lines indicated with a red asterisk are the ones in which cell death is observed (i.e. for which the absorbance observed for treated cells was lower than the original inoculum).
(§1) ErB-B2 (HER2) is often overexpressed in breast and ovarian cell lines.

[4] = test system: NCI-H1975 tumors; conditions: for in vivo effect on tumor growth: s.c. NCI-H1975 tumors, athymic mice, p.o. (FIG. 3)
Method: Non small cell lung carcinoma cell lines with amplified EGFR, but refractory to EGFR inhibition therapy, are valuable models to test the sensitivity of PI3K inhibitors like the compounds of formula I in such genetic background. […] The in vivo antitumor activity of PI3K inhibitors like the compounds of formula I is tested against this EGFR driven and inhibitor resistant tumor model (FIG. 3).

[5] = test system: BT474 tumors; experiment: antitumor activity against s.c. BT474 xenografts; assay type: in vivo, mice; conditions: BT474 subcutaneous xenografts, 45 mg/kg, po, once per day (FIG. 6)
Source text: as §1

Cn1c(=O)n(-c2ccc(C(C)(C)C#N)cc2)c2c3cc(-c4cnc5ccccc5c4)ccc3ncc21 [Compound A, 2-methyl-2-[4-(3-methyl-2-oxo-8-quinolin-3-yl-2,3-dihydro-imidazo[4,5-c]quinolin-1-yl)-phenyl]-propionitrile]
GI50 [1]: 31 nM | GI50 [2]: 11.4 nM | GI50 ([3]; Homo sapiens, panel of breast tumor cell lines containing or not ErbB2 amplification, read-out: median GI50): 11.1 nM | cell death ([3]; cell lines that overexpressed ErbB2 (FIG. 5)): induces cell death | tolerability (body weight, control vs treatment groups) ([4]; mouse, in vivo): well tolerated | in vivo effect on tumor growth [4]: causes in vivo tumor growth inhibition | in vivo antitumor effect [5]: tumor regression

C#Cc1cccc(Nc2ncnc3cc(OCCOC)c(OCCOC)cc23)c1 [erlotinib, reference compound]
in vivo effect on tumor growth [4]: no significant inhibition on tumor growth

CCN1CCN(Cc2ccc(-c3cc4c(N[C@H](C)c5ccccc5)ncnc4[nH]3)cc2)CC1 [NVP-AEE788, reference compound]
in vivo effect on tumor growth [4]: no significant inhibition on tumor growth
